Assay results from the supplement of paper PMC10307832.

Compound: Cn1c(=O)n(-c2ccc(C(C)(C)C#N)cc2)c2c3cc(-c4cnc5ccccc5c4)ccc3ncc21 [Dactolisib] + Cc1cc(Nc2cc(N3CCN(C)CC3)nc(Sc3ccc(NC(=O)C4CC4)cc3)n2)n[nH]1 [Tozasertib] (partner 0.1 µM)
Test: relative viability (nuclei count vs DMSO), 5 days (fraction); higher = more cells survive
Conditions: first compound 0.002 µM
In short: (§1)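 Values are medians from duplicate plates. Each reflects relative viability, defined as the nuclei count of treated wells over that of vehicle wells. Lung cancer cell lines in 1536-well plates were pin-tool dosed one day after seeding with one drug alone or with a fixed anchor-drug dose plus five library-drug doses (not always all listed) in √10 steps, then fixed, stained and imaged at 4× after 5 days.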

In order of falling relative viability:
1. 201T  0.936
2. NCI-H441  0.831
3. NCI-H2009  0.742
4. NCI-H1651  0.693
5. NCI-H2347  0.676
6. NCI-H1395  0.657
7. SW 900  0.633
8. NCI-H1355  0.625
9. NCI-H1755  0.613
10. PC-14  0.576
11. NCI-H1437  0.467
12. NCI-H3122  0.427
13. EKVX  0.426
14. NCI-H1915  0.419
15. HCC-827  0.419
16. HCC-15  0.388
17. NCI-H322M  0.386
18. NCI-H460  0.38
19. NCI-H2023  0.351
20. EPLC-272H  0.348
21. NCI-H23  0.346
22. NCI-H661  0.345
23. NCI-H1793  0.329
24. CAL-12T  0.288
25. NCI-H647  0.265
26. NCI-H2228  0.256
27. LXF-289  0.236
28. NCI-H1734  0.212
29. A-427  0.201
30. LCLC-97TM1  0.189
31. SW 1573  0.153
32. HARA  0.103

Same assay, conditions: first compound 0.006325 µM

In order of falling relative viability:
1. 201T  0.965
2. NCI-H2009  0.717
3. NCI-H1395  0.709
4. PC-14  0.679
5. NCI-H1651  0.677
6. SW 900  0.669
7. NCI-H441  0.632
8. NCI-H1755  0.555
9. NCI-H1355  0.537
10. NCI-H2347  0.527
11. NCI-H1915  0.506
12. NCI-H322M  0.46
13. HCC-827  0.452
14. NCI-H1437  0.425
15. NCI-H23  0.399
16. NCI-H460  0.396
17. HCC-15  0.386
18. NCI-H661  0.366
19. EKVX  0.366
20. NCI-H3122  0.361
21. NCI-H2023  0.312
22. CAL-12T  0.296
23. NCI-H2228  0.294
24. NCI-H1734  0.259
25. NCI-H1793  0.242
26. NCI-H647  0.235
27. EPLC-272H  0.221
28. SW 1573  0.2
29. A-427  0.192
30. LXF-289  0.189
31. LCLC-97TM1  0.15
32. HARA  0.116

Same assay, conditions: first compound 0.02 µM

In order of falling relative viability:
1. 201T  0.98
2. NCI-H2009  0.764
3. NCI-H1395  0.676
4. PC-14  0.629
5. NCI-H1755  0.577
6. NCI-H1651  0.564
7. NCI-H2347  0.535
8. NCI-H441  0.522
9. SW 900  0.511
10. NCI-H1915  0.459
11. HCC-15  0.449
12. NCI-H1355  0.447
13. NCI-H3122  0.425
14. EKVX  0.423
15. NCI-H1437  0.415
16. NCI-H322M  0.414
17. HCC-827  0.401
18. NCI-H460  0.387
19. NCI-H661  0.345
20. NCI-H23  0.318
21. NCI-H2023  0.313
22. NCI-H1734  0.279
23. A-427  0.253
24. EPLC-272H  0.243
25. CAL-12T  0.241
26. SW 1573  0.232
27. LXF-289  0.226
28. NCI-H1793  0.199
29. NCI-H2228  0.191
30. NCI-H647  0.19
31. LCLC-97TM1  0.151
32. HARA  0.103

Same assay, conditions: first compound 0.06325 µM

In order of falling relative viability:
1. 201T  0.879
2. NCI-H1395  0.593
3. NCI-H1755  0.542
4. NCI-H1437  0.518
5. NCI-H2009  0.488
6. NCI-H1651  0.475
7. NCI-H1355  0.456
8. SW 900  0.426
9. HCC-827  0.416
10. NCI-H322M  0.412
11. NCI-H1915  0.404
12. NCI-H2347  0.394
13. NCI-H441  0.384
14. NCI-H661  0.381
15. NCI-H3122  0.352
16. HCC-15  0.326
17. NCI-H460  0.257
18. EKVX  0.242
19. NCI-H1734  0.23
20. PC-14  0.215
21. A-427  0.208
22. NCI-H23  0.208
23. EPLC-272H  0.207
24. LXF-289  0.182
25. LCLC-97TM1  0.171
26. CAL-12T  0.163
27. SW 1573  0.154
28. NCI-H1793  0.126
29. HARA  0.112
30. NCI-H2228  0.112
31. NCI-H2023  0.109
32. NCI-H647  0.099

Same assay, conditions: first compound 0.2 µM

In order of rising relative viability:
1. HARA  0.0818
2. NCI-H2023  0.0881
3. SW 1573  0.0965
4. NCI-H2228  0.0991
5. NCI-H1793  0.106
6. LCLC-97TM1  0.111
7. NCI-H647  0.112
8. CAL-12T  0.121
9. PC-14  0.125
10. LXF-289  0.136
11. NCI-H460  0.139
12. NCI-H3122  0.16
13. NCI-H1355  0.177
14. NCI-H23  0.178
15. EKVX  0.179
16. A-427  0.187
17. EPLC-272H  0.193
18. NCI-H1734  0.198
19. HCC-15  0.215
20. NCI-H2009  0.238
21. NCI-H2347  0.264
22. NCI-H441  0.284
23. NCI-H1651  0.286
24. NCI-H1915  0.296
25. HCC-827  0.329
26. NCI-H661  0.353
27. SW 900  0.36
28. NCI-H322M  0.37
29. NCI-H1437  0.382
30. NCI-H1755  0.419
31. 201T  0.474
32. NCI-H1395  0.53

Compound: C1CCC(CC1)N(CCNCCC2=C3C(=C(C=C2)O)NC(=O)CO3)C(=O)CCNCCC4=CC(=C(C=C4)Cl)Cl [AZ505] + O=C(CCCCCCC(=O)Nc1ccccc1)NO [Vorinostat] (partner 1 µM)
Test: as above
Conditions: first compound 0.08 µM
In short: as §1

In order of rising relative viability:
1. NCI-H2347  0.39
2. NCI-H2228  0.409
3. NCI-H1651  0.443
4. EPLC-272H  0.443
5. NCI-H647  0.446
6. NCI-H1915  0.469
7. NCI-H23  0.526
8. PC-14  0.527
9. NCI-H1355  0.53
10. SW 900  0.536
11. HARA  0.547
12. NCI-H2023  0.57
13. CAL-12T  0.577
14. LCLC-97TM1  0.625
15. NCI-H2009  0.635
16. NCI-H1793  0.637
17. EKVX  0.66
18. NCI-H460  0.69
19. NCI-H1395  0.711
20. NCI-H661  0.744
21. NCI-H1734  0.751
22. NCI-H1755  0.782
23. NCI-H441  0.786
24. SW 1573  0.807
25. LXF-289  0.807
26. NCI-H3122  0.807
27. NCI-H322M  0.824
28. NCI-H1437  0.828
29. HCC-15  0.844
30. A-427  0.877
31. 201T  0.877
32. HCC-827  0.906

Same assay, conditions: first compound 0.253 µM

In order of falling relative viability:
1. NCI-H3122  1.02
2. 201T  0.998
3. CAL-12T  0.971
4. NCI-H460  0.912
5. NCI-H441  0.881
6. NCI-H1755  0.859
7. NCI-H1734  0.842
8. A-427  0.839
9. NCI-H1437  0.838
10. NCI-H661  0.818
11. HCC-15  0.817
12. SW 1573  0.806
13. PC-14  0.79
14. LXF-289  0.787
15. EKVX  0.766
16. NCI-H647  0.747
17. LCLC-97TM1  0.746
18. HCC-827  0.732
19. NCI-H2009  0.678
20. NCI-H1915  0.66
21. NCI-H1793  0.653
22. NCI-H2023  0.631
23. NCI-H1651  0.606
24. NCI-H1355  0.59
25. NCI-H2228  0.589
26. NCI-H23  0.582
27. HARA  0.522
28. EPLC-272H  0.516
29. NCI-H2347  0.417
30. SW 900  0.303

Same assay, conditions: first compound 0.8 µM

In order of rising relative viability:
1. EPLC-272H  0.413
2. SW 900  0.43
3. HARA  0.457
4. NCI-H2347  0.474
5. NCI-H1915  0.508
6. NCI-H647  0.529
7. NCI-H2228  0.543
8. NCI-H23  0.561
9. NCI-H1651  0.585
10. NCI-H1355  0.585
11. NCI-H2023  0.63
12. NCI-H1793  0.641
13. NCI-H2009  0.652
14. PC-14  0.659
15. NCI-H460  0.672
16. NCI-H1395  0.68
17. EKVX  0.687
18. CAL-12T  0.692
19. HCC-827  0.7
20. NCI-H1734  0.731
21. NCI-H441  0.735
22. LCLC-97TM1  0.748
23. NCI-H1755  0.788
24. NCI-H661  0.797
25. HCC-15  0.803
26. LXF-289  0.808
27. A-427  0.82
28. NCI-H1437  0.858
29. NCI-H322M  0.888
30. 201T  0.903
31. NCI-H3122  1.03
32. SW 1573  1.53

Same assay, conditions: first compound 2.53 µM

In order of rising relative viability:
1. NCI-H2347  0.464
2. HARA  0.471
3. NCI-H1915  0.472
4. EPLC-272H  0.52
5. EKVX  0.548
6. NCI-H647  0.583
7. NCI-H2023  0.588
8. NCI-H1651  0.607
9. NCI-H1355  0.624
10. NCI-H2009  0.626
11. NCI-H2228  0.643
12. SW 900  0.675
13. PC-14  0.688
14. LXF-289  0.703
15. NCI-H460  0.71
16. NCI-H1755  0.743
17. NCI-H1395  0.744
18. NCI-H661  0.75
19. SW 1573  0.756
20. NCI-H441  0.782
21. NCI-H23  0.81
22. NCI-H1734  0.832
23. NCI-H322M  0.837
24. CAL-12T  0.849
25. HCC-15  0.854
26. A-427  0.872
27. NCI-H1793  0.898
28. 201T  0.907
29. HCC-827  0.92
30. NCI-H1437  0.955
31. NCI-H3122  0.992

Same assay, conditions: first compound 8 µM

In order of falling relative viability:
1. NCI-H647  1.06
2. CAL-12T  1.01
3. NCI-H3122  1.01
4. LCLC-97TM1  0.984
5. 201T  0.976
6. HCC-827  0.924
7. NCI-H661  0.888
8. NCI-H322M  0.882
9. NCI-H441  0.876
10. A-427  0.837
11. NCI-H1437  0.823
12. NCI-H1755  0.813
13. NCI-H1395  0.812
14. SW 1573  0.79
15. LXF-289  0.787
16. NCI-H460  0.782
17. NCI-H1734  0.773
18. SW 900  0.678
19. NCI-H2009  0.678
20. NCI-H23  0.627
21. NCI-H1355  0.62
22. NCI-H2228  0.588
23. NCI-H1651  0.568
24. HARA  0.541
25. NCI-H1915  0.495
26. EPLC-272H  0.398
27. NCI-H2347  0.352
